Assay results from ChEMBL document CHEMBL1649268, “Comparative in vitro activity profile of oritavancin against recent gram-positive clinical isolates” (2009).
In brackets after ≈: the same amount, converted by molar mass.

Columns and labels:
Streptococcus pneumoniae [1] = assay: Antimicrobial activity against Streptococcus pneumoniae clinical isolates by broth microdilution method; type: functional
Streptococcus pneumoniae [2] = assay: Antimicrobial activity against penicillin-susceptible Streptococcus pneumoniae clinical isolates by broth microdilution method; type: functional
Streptococcus pneumoniae [3] = assay: Antimicrobial activity against penicillin-intermediate Streptococcus pneumoniae clinical isolates by broth microdilution method; type: functional
Streptococcus pneumoniae [4] = assay: Antimicrobial activity against penicillin-resistant Streptococcus pneumoniae clinical isolates by broth microdilution method; type: functional
[5] = Antimicrobial activity against erythromycin-susceptible Streptococcus Group G clinical isolates assessed as percent susceptible isolates by broth microdilution method; type: functional, Streptococcus sp. 'group G'
[6] = Antimicrobial activity against erythromycin-susceptible Streptococcus Group C clinical isolates assessed as percent susceptible isolates by broth microdilution method; type: functional, Streptococcus sp. 'group C'
Streptococcus pyogenes [7] = assay: Antimicrobial activity against erythromycin-nonsusceptible Streptococcus pyogenes clinical isolates assessed as percent susceptible isolates by broth microdilution method; type: functional
Streptococcus pyogenes [8] = assay: Antimicrobial activity against erythromycin-susceptible Streptococcus pyogenes clinical isolates assessed as percent susceptible isolates by broth microdilution method; type: functional
Streptococcus pyogenes [9] = assay: Antimicrobial activity against Streptococcus pyogenes clinical isolates assessed as percent susceptible isolates by broth microdilution method; type: functional
Streptococcus agalactiae [10] = assay: Antimicrobial activity against erythromycin-nonsusceptible Streptococcus agalactiae clinical isolates assessed as percent susceptible isolates by broth microdilution method; type: functional
Streptococcus agalactiae [11] = assay: Antimicrobial activity against erythromycin-susceptible Streptococcus agalactiae clinical isolates assessed as percent susceptible isolates by broth microdilution method; type: functional
Streptococcus agalactiae [12] = assay: Antimicrobial activity against Streptococcus agalactiae clinical isolates assessed as percent susceptible isolates by broth microdilution method; type: functional
Enterococcus faecium [13] = assay: Antimicrobial activity against Enterococcus faecium clinical isolates assessed as percent susceptible isolates by broth microdilution method; type: functional
Enterococcus faecalis [14] = assay: Antimicrobial activity against Enterococcus faecalis expressing VanB gene clinical isolates assessed as percent susceptible isolates by broth microdilution method; type: functional
Enterococcus faecalis [15] = assay: Antimicrobial activity against Enterococcus faecalis clinical isolates assessed as percent susceptible isolates by broth microdilution method; type: functional
Streptococcus pneumoniae [16] = assay: Antimicrobial activity against Streptococcus pneumoniae clinical isolates assessed as percent susceptible isolates by broth microdilution method; type: functional
Streptococcus pneumoniae [17] = assay: Antimicrobial activity against penicillin-susceptible Streptococcus pneumoniae clinical isolates assessed as percent susceptible isolates by broth microdilution method; type: functional
Streptococcus pneumoniae [18] = assay: Antimicrobial activity against penicillin-intermediate Streptococcus pneumoniae clinical isolates assessed as percent susceptible isolates by broth microdilution method; type: functional
Streptococcus pneumoniae [19] = assay: Antimicrobial activity against penicillin-resistant Streptococcus pneumoniae clinical isolates assessed as percent susceptible isolates by broth microdilution method; type: functional
[20] = Antimicrobial activity against Streptococcus Group G clinical isolates assessed as resistant isolates by broth microdilution method; type: functional, Streptococcus sp. 'group G'
[21] = Antimicrobial activity against erythromycin-susceptible Streptococcus Group C clinical isolates assessed as resistant isolates by broth microdilution method; type: functional, Streptococcus sp. 'group C'
Streptococcus pyogenes [22] = assay: Antimicrobial activity against erythromycin-nonsusceptible Streptococcus pyogenes clinical isolates assessed as resistant isolates by broth microdilution method; type: functional
Streptococcus pyogenes [23] = assay: Antimicrobial activity against erythromycin-susceptible Streptococcus pyogenes clinical isolates assessed as resistant isolates by broth microdilution method; type: functional
Streptococcus agalactiae [24] = assay: Antimicrobial activity against erythromycin-nonsusceptible Streptococcus agalactiae clinical isolates assessed as resistant isolates by broth microdilution method; type: functional
Streptococcus agalactiae [25] = assay: Antimicrobial activity against erythromycin-susceptible Streptococcus agalactiae clinical isolates assessed as resistant isolates by broth microdilution method; type: functional
Streptococcus agalactiae [26] = assay: Antimicrobial activity against Streptococcus agalactiae clinical isolates assessed as resistant isolates by broth microdilution method; type: functional
Enterococcus faecium [27] = assay: Antimicrobial activity against vancomycin-susceptible Enterococcus faecium clinical isolates assessed as resistant isolates by broth microdilution method; type: functional
Enterococcus faecium [28] = assay: Antimicrobial activity against Enterococcus faecium clinical isolates assessed as resistant isolates by broth microdilution method; type: functional
Enterococcus faecalis [29] = assay: Antimicrobial activity against vancomycin-nonsusceptible Enterococcus faecalis clinical isolates assessed as resistant isolates by broth microdilution method; type: functional
Enterococcus faecalis [30] = assay: Antimicrobial activity against Enterococcus faecalis clinical isolates assessed as resistant isolates by broth microdilution method; type: functional
Streptococcus [31] = assay: Antimicrobial activity against erythromycin-nonsusceptible Streptococcus Group F clinical isolates by broth microdilution method; type: functional
Streptococcus [32] = assay: Antimicrobial activity against erythromycin-susceptible Streptococcus Group F clinical isolates by broth microdilution method; type: functional
Streptococcus [33] = assay: Antimicrobial activity against Streptococcus Group F clinical isolates by broth microdilution method; type: functional
[34] = Antimicrobial activity against erythromycin-nonsusceptible Streptococcus Group G clinical isolates by broth microdilution method; type: functional; conditions: Streptococcus sp. 'group G'
[35] = Antimicrobial activity against erythromycin-susceptible Streptococcus Group G clinical isolates by broth microdilution method; type: functional; conditions: Streptococcus sp. 'group G'
[36] = Antimicrobial activity against Streptococcus Group G clinical isolates by broth microdilution method; type: functional; conditions: Streptococcus sp. 'group G'
[37] = Antimicrobial activity against erythromycin-nonsusceptible Streptococcus Group C clinical isolates by broth microdilution method; type: functional; conditions: Streptococcus sp. 'group C'
[38] = Antimicrobial activity against erythromycin-susceptible Streptococcus Group C clinical isolates by broth microdilution method; type: functional; conditions: Streptococcus sp. 'group C'
[39] = Antimicrobial activity against Streptococcus Group C clinical isolates by broth microdilution method; type: functional; conditions: Streptococcus sp. 'group C'
Streptococcus pyogenes [40] = assay: Antimicrobial activity against erythromycin-nonsusceptible Streptococcus pyogenes clinical isolates by broth microdilution method; type: functional
Streptococcus pyogenes [41] = assay: Antimicrobial activity against erythromycin-susceptible Streptococcus pyogenes clinical isolates by broth microdilution method; type: functional
Streptococcus pyogenes [42] = assay: Antimicrobial activity against Streptococcus pyogenes clinical isolates by broth microdilution method; type: functional
Streptococcus agalactiae [43] = assay: Antimicrobial activity against erythromycin-nonsusceptible Streptococcus agalactiae clinical isolates by broth microdilution method; type: functional
Streptococcus agalactiae [44] = assay: Antimicrobial activity against erythromycin-susceptible Streptococcus agalactiae clinical isolates by broth microdilution method; type: functional
Streptococcus agalactiae [45] = assay: Antimicrobial activity against Streptococcus agalactiae clinical isolates by broth microdilution method; type: functional
Enterococcus faecium [46] = assay: Antimicrobial activity against Enterococcus faecium expressing VanA gene clinical isolates by broth microdilution method; type: functional
Enterococcus faecalis [47] = assay: Antimicrobial activity against Enterococcus faecalis clinical isolates by broth microdilution method; type: functional
[48] = Antimicrobial activity against Streptococcus Group G clinical isolates assessed as percent susceptible isolates by broth microdilution method; type: functional, Streptococcus sp. 'group G'
[49] = test system: Staphylococcus haemolyticus; assay: Antimicrobial activity against oxacillin-susceptible Staphylococcus haemolyticus clinical isolates assessed as percent susceptible isolates by broth microdilution method; type: functional
[50] = test system: Staphylococcus haemolyticus; assay: Antimicrobial activity against Staphylococcus haemolyticus clinical isolates assessed as percent susceptible isolates by broth microdilution method; type: functional
[51] = test system: Staphylococcus epidermidis; assay: Antimicrobial activity against oxacillin-susceptible Staphylococcus epidermidis clinical isolates assessed as percent susceptible isolates by broth microdilution method; type: functional
[52] = test system: Staphylococcus haemolyticus; assay: Antimicrobial activity against oxacillin-resistant Staphylococcus haemolyticus clinical isolates assessed as resistant isolates by broth microdilution method; type: functional
[53] = test system: Staphylococcus epidermidis; assay: Antimicrobial activity against oxacillin-resistant Staphylococcus epidermidis clinical isolates assessed as resistant isolates by broth microdilution method; type: functional
[54] = test system: Staphylococcus epidermidis; assay: Antimicrobial activity against Staphylococcus epidermidis clinical isolates assessed as resistant isolates by broth microdilution method; type: functional
[55] = test system: Staphylococcus haemolyticus; assay: Antimicrobial activity against oxacillin-resistant Staphylococcus haemolyticus clinical isolates by broth microdilution method; type: functional
[56] = test system: Staphylococcus haemolyticus; assay: Antimicrobial activity against oxacillin-susceptible Staphylococcus haemolyticus clinical isolates by broth microdilution method; type: functional
Staphylococcus aureus = assay: Antimicrobial activity against oxacillin-susceptible Staphylococcus aureus clinical isolates by broth microdilution method; type: functional

Structure (SMILES): C[C@H]1COc2c(N3CCN(C)CC3)c(F)cc3c(=O)c(C(=O)O)cn1c23.C[C@H]1COc2c(N3CCN(C)CC3)c(F)cc3c(=O)c(C(=O)O)cn1c23.O [LEVOFLOXACIN]
- MIC90 (Streptococcus pneumoniae [1]): 1 µg/mL
- MIC90 (Streptococcus pneumoniae [2]): 1 µg/mL
- MIC90 (Streptococcus pneumoniae [3]): 1 µg/mL
- MIC90 (Streptococcus pneumoniae [4]): 1 µg/mL
- Activity [5]: 100%
- Activity [6]: 100%
- Activity (Streptococcus pyogenes [7]): 99.2%
- Activity (Streptococcus pyogenes [8]): 100%
- Activity (Streptococcus pyogenes [9]): 99.9%
- Activity (Streptococcus agalactiae [10]): 95.9%
- Activity (Streptococcus agalactiae [11]): 98.6%
- Activity (Streptococcus agalactiae [12]): 97.8%
- Activity (Enterococcus faecium [13]): 12.2%
- Activity (Enterococcus faecalis [14]): 0%
- Activity (Enterococcus faecalis [15]): 61.2%
- Activity (Streptococcus pneumoniae [16]): 99.1%
- Activity (Streptococcus pneumoniae [17]): 99.5%
- Activity (Streptococcus pneumoniae [18]): 97.7%
- Activity (Streptococcus pneumoniae [19]): 99.3%
- Activity [20]: 0%
- Activity [21]: 0%
- Activity (Streptococcus pyogenes [22]): 0.8%
- Activity (Streptococcus pyogenes [23]): 0%
- Activity (Streptococcus agalactiae [24]): 4.1%
- Activity (Streptococcus agalactiae [25]): 1.4%
- Activity (Streptococcus agalactiae [26]): 2.2%
- Activity (Enterococcus faecium [27]): 66%
- Activity (Enterococcus faecium [28]): 85.3%
- Activity (Enterococcus faecalis [29]): 100%
- Activity (Enterococcus faecalis [30]): 38.4%
- MIC90 (Streptococcus [31]): 0.5 µg/mL
- MIC90 (Streptococcus [32]): 0.5 µg/mL
- MIC90 (Streptococcus [33]): 0.5 µg/mL
- MIC90 [34]: 0.5 µg/mL
- MIC90 [35]: 0.5 µg/mL
- MIC90 [36]: 0.5 µg/mL
- MIC90 [37]: 0.5 µg/mL
- MIC90 [38]: 0.5 µg/mL
- MIC90 [39]: 0.5 µg/mL
- MIC90 (Streptococcus pyogenes [40]): 1 µg/mL
- MIC90 (Streptococcus pyogenes [41]): 0.5 µg/mL
- MIC90 (Streptococcus pyogenes [42]): 0.5 µg/mL
- MIC90 (Streptococcus agalactiae [43]): 1 µg/mL
- MIC90 (Streptococcus agalactiae [44]): 1 µg/mL
- MIC90 (Streptococcus agalactiae [45]): 1 µg/mL
- MIC90 (Enterococcus faecium [46]): > 16 µg/mL
- MIC90 (Enterococcus faecalis [47]): > 16 µg/mL

Structure (SMILES): CN[C@H](CC(C)C)C(=O)N[C@H]1C(=O)N[C@@H](CC(N)=O)C(=O)N[C@H]2C(=O)N[C@H]3C(=O)N[C@H](C(=O)N[C@H](C(=O)O)c4cc(O)cc(O)c4-c4cc3ccc4O)[C@H](O)c3ccc(c(Cl)c3)Oc3cc2cc(c3O[C@@H]2O[C@H](CO)[C@@H](O)[C@H](O)[C@H]2O[C@H]2C[C@](C)(N)[C@H](O)[C@H](C)O2)Oc2ccc(cc2Cl)[C@H]1O [VANCOMYCIN]
- MIC90 (Streptococcus pneumoniae [1]): 0.25 µg/mL (≈ 0.173 µM)
- MIC90 (Streptococcus pneumoniae [2]): 0.25 µg/mL (≈ 0.173 µM)
- MIC90 (Streptococcus pneumoniae [3]): 0.25 µg/mL (≈ 0.173 µM)
- MIC90 (Streptococcus pneumoniae [4]): 0.5 µg/mL (≈ 0.345 µM)
- Activity [5]: 100%
- Activity [48]: 100%
- Activity [6]: 100%
- Activity (Streptococcus pyogenes [7]): 100%
- Activity (Streptococcus pyogenes [8]): 100%
- Activity (Streptococcus pyogenes [9]): 100%
- Activity (Streptococcus agalactiae [10]): 100%
- Activity (Streptococcus agalactiae [11]): 100%
- Activity (Streptococcus agalactiae [12]): 100%
- Activity (Enterococcus faecium [13]): 42.7%
- Activity (Enterococcus faecalis [14]): 0%
- Activity (Enterococcus faecalis [15]): 95%
- Activity [49]: 100%
- Activity [50]: 100%
- Activity [51]: 100%
- Activity (Streptococcus pneumoniae [16]): 100%
- Activity (Streptococcus pneumoniae [17]): 100%
- Activity (Streptococcus pneumoniae [18]): 100%
- Activity (Streptococcus pneumoniae [19]): 100%
- Activity (Streptococcus agalactiae [24]): 0%
- Activity (Streptococcus agalactiae [25]): 0%
- Activity (Streptococcus agalactiae [26]): 0%
- Activity (Enterococcus faecium [27]): 0%
- Activity (Enterococcus faecium [28]): 56.3%
- Activity (Enterococcus faecalis [29]): 94.3%
- Activity (Enterococcus faecalis [30]): 4.7%
- Activity [52]: 0%
- Percent of isolates resistant [53]: 0%
- Percent of isolates resistant [54]: 0%
- MIC90 (Streptococcus [31]): 0.5 µg/mL (≈ 0.345 µM)
- MIC90 (Streptococcus [32]): 0.5 µg/mL (≈ 0.345 µM)
- MIC90 (Streptococcus [33]): 0.5 µg/mL (≈ 0.345 µM)
- MIC90 [34]: 0.5 µg/mL (≈ 0.345 µM)
- MIC90 [35]: 0.5 µg/mL (≈ 0.345 µM)
- MIC90 [36]: 0.5 µg/mL (≈ 0.345 µM)
- MIC90 [37]: 0.5 µg/mL (≈ 0.345 µM)
- MIC90 [38]: 0.5 µg/mL (≈ 0.345 µM)
- MIC90 [39]: 0.5 µg/mL (≈ 0.345 µM)
- MIC90 (Streptococcus pyogenes [40]): 0.25 µg/mL (≈ 0.173 µM)
- MIC90 (Streptococcus pyogenes [41]): 0.25 µg/mL (≈ 0.173 µM)
- MIC90 (Streptococcus pyogenes [42]): 0.25 µg/mL (≈ 0.173 µM)
- MIC90 (Streptococcus agalactiae [43]): 0.5 µg/mL (≈ 0.345 µM)
- MIC90 (Streptococcus agalactiae [44]): 0.5 µg/mL (≈ 0.345 µM)
- MIC90 (Streptococcus agalactiae [45]): 0.5 µg/mL (≈ 0.345 µM)
- MIC90 (Enterococcus faecium [46]): > 256 µg/mL
- MIC90 (Enterococcus faecalis [47]): 2 µg/mL (≈ 1.38 µM)
- MIC90 [55]: 2 µg/mL (≈ 1.38 µM)
- MIC90 [56]: 1 µg/mL (≈ 0.69 µM)
- MIC90 (Staphylococcus aureus): 1 µg/mL (≈ 0.69 µM)
